Measurements reported in ChEMBL document CHEMBL5528048, “Discovery of Novel Potent and Fast BTK PROTACs for the Treatment of Osteoclasts-Related Inflammatory Diseases” (J Med Chem, 2024).
Active and inactive are the calls of the source. The rule behind the calls is not given here.

Experiments:
[1] = target: T1, Protein cereblon/Tyrosine-protein kinase BTK (Homo sapiens, UniProt Q06187+Q96SW2); assay: PROTAC activity at BTK/CRBN in human MINO cells assessed as BTK protein degradation at 100 nM measured after 24 hrs by Western blotting analysis relative to control; assay type: cell-based
Target sequence in this assay (Q06187 2-659 limits assumed): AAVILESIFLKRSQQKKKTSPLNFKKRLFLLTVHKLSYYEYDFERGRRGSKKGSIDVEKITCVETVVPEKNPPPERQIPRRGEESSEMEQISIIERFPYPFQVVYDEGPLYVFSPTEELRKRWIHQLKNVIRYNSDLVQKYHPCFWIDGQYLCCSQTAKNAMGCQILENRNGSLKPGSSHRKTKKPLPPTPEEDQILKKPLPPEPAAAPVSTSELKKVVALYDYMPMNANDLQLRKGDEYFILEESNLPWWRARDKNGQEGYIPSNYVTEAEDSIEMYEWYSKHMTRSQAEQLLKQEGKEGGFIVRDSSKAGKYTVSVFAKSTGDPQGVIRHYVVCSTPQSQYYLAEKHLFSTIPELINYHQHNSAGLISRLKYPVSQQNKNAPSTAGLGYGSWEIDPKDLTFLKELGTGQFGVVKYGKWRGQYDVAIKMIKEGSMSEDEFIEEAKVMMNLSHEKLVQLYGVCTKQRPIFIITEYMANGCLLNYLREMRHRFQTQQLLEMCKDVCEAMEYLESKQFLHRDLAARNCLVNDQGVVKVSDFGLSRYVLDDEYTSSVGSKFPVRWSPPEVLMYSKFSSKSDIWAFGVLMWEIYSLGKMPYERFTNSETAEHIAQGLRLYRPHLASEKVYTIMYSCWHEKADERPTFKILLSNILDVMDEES
Target sequence in this assay (Q96SW2 whole entry partner): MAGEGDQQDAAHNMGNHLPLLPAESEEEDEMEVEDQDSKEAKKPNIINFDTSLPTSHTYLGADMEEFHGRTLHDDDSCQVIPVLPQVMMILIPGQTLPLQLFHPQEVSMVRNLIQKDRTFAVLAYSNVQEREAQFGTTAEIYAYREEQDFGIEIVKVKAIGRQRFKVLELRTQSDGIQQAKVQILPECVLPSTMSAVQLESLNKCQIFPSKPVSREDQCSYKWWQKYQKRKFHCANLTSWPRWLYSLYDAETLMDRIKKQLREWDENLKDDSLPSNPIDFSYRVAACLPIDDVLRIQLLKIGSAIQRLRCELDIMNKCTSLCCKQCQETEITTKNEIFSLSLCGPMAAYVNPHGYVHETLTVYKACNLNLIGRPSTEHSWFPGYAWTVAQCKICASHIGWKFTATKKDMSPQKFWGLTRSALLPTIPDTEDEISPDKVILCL

[2] = target: T1, Protein cereblon/Tyrosine-protein kinase BTK; assay: PROTAC activity at BTK/CRBN in human MINO cells assessed as BTK protein degradation at 20 nM measured after 24 hrs by Western blotting analysis relative to control; assay type: cell-based
Target sequence in this assay (Q06187 2-659 limits assumed): as the sequence (Q06187 2-659 limits assumed) above
Target sequence in this assay (Q96SW2 whole entry partner): as the sequence (Q96SW2 whole entry partner) above

[3] = target: T1, Protein cereblon/Tyrosine-protein kinase BTK; assay: PROTAC activity at BTK/CRBN in human MINO cells assessed as BTK protein degradation by measuring onset time activity at 20 nM by Western blotting analysis; assay type: cell-based
Target sequence in this assay (Q06187 2-659 limits assumed): as the sequence (Q06187 2-659 limits assumed) above
Target sequence in this assay (Q96SW2 whole entry partner): as the sequence (Q96SW2 whole entry partner) above

[4] = target: T1, Protein cereblon/Tyrosine-protein kinase BTK; assay: PROTAC activity at BTK/CRBN in human MINO cells assessed as BTK protein degradation half life at 20 nM by Western blotting analysis; assay type: cell-based
Target sequence in this assay (Q06187 2-659 limits assumed): as the sequence (Q06187 2-659 limits assumed) above
Target sequence in this assay (Q96SW2 whole entry partner): as the sequence (Q96SW2 whole entry partner) above

[5] = target: T1, Protein cereblon/Tyrosine-protein kinase BTK; assay: PROTAC activity at BTK/CRBN in human MINO cells assessed as BTK protein degradation measured for 4 hrs by Western blotting analysis; assay type: cell-based
Target sequence in this assay (Q06187 whole entry): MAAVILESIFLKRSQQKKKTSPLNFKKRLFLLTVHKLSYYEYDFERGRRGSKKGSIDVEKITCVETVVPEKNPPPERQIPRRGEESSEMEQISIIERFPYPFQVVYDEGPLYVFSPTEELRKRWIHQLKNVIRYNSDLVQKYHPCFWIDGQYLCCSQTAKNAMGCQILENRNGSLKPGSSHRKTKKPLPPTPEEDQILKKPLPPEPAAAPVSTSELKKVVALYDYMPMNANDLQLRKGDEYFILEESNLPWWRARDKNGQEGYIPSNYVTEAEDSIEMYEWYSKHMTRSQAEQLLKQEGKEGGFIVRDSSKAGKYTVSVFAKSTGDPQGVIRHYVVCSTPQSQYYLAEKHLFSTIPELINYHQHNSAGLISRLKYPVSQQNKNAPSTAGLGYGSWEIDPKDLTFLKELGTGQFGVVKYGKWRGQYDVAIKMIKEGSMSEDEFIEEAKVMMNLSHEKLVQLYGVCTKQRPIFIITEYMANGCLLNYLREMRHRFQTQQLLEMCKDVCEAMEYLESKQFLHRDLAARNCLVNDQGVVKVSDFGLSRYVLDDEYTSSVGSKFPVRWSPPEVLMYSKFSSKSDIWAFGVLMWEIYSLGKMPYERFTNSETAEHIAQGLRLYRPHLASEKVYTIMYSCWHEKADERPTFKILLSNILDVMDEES
Target sequence in this assay (Q96SW2 whole entry): as the sequence (Q96SW2 whole entry partner) above

[6] = AUC (0 to t) in Sprague-Dawley rat at 4 mg/kg, ip measured upto 48 hrs; assay type: ADME, organism-based; details: in vivo
[7] = AUC (0 to infinity) in Sprague-Dawley rat at 4 mg/kg, ip measured upto 48 hrs; assay type: ADME, organism-based; details: in vivo
[8] = Cmax in Sprague-Dawley rat at 4 mg/kg, ip measured upto 48 hrs; assay type: ADME, organism-based; details: in vivo
[9] = target: T1, Protein cereblon/Tyrosine-protein kinase BTK; assay: PROTAC activity at BTK/CRBN in human MINO cells assessed as BTK protein degradation at 20 nM by Western blotting analysis; assay type: cell-based; details: time lower 2.0 hrs, time upper […], TDE = time-dependent effect
Target sequence in this assay (Q06187 2-659 limits assumed): as the sequence (Q06187 2-659 limits assumed) above
Target sequence in this assay (Q96SW2 whole entry partner): as the sequence (Q96SW2 whole entry partner) above

[10] = target: T1, Protein cereblon/Tyrosine-protein kinase BTK; assay: PROTAC activity at BTK/CRBN in human MINO cells assessed as BTK protein degradation at 20 nM measured after 4 to 8 hrs by Western blotting analysis; assay type: cell-based; details: time 4-8 hrs
Target sequence in this assay (Q06187 2-659 limits assumed): as the sequence (Q06187 2-659 limits assumed) above
Target sequence in this assay (Q96SW2 whole entry partner): as the sequence (Q96SW2 whole entry partner) above

[11] = target: T1, Protein cereblon/Tyrosine-protein kinase BTK; assay: PROTAC activity at BTK/CRBN in human MINO cells assessed as BTK protein degradation at 20 nM measured after 48 hrs by Western blotting analysis; assay type: cell-based
[12] = target: T1, Protein cereblon/Tyrosine-protein kinase BTK; assay: PROTAC activity at BTK/CRBN in human MINO cells assessed as BTK protein degradation measured for 24 hrs by Western blotting analysis; assay type: cell-based
Target sequence in this assay (Q06187 whole entry): as the sequence (Q06187 whole entry) above
Target sequence in this assay (Q96SW2 whole entry): as the sequence (Q96SW2 whole entry partner) above

[13] = target: T2, Tyrosine-protein kinase BTK (Homo sapiens, UniProt Q06187); assay: Inhibition of BTK (unknown origin) measured after 60 mins incubation by microtiter-plate reader
T2 sequence (Q06187 whole entry): as the sequence (Q06187 whole entry) above

[14] = target: T2, Tyrosine-protein kinase BTK; assay: Binding affinity to BTK (unknown origin) assessed as inhibition constant measured after 60 mins incubation by microtiter-plate reader
Protein cereblon = Protein cereblon (Homo sapiens, UniProt Q96SW2); assay: Inhibition of CRBN (unknown origin) measured after 60 mins incubation by BMG reader
Protein cereblon, sequence (Q96SW2 whole entry): as the sequence (Q96SW2 whole entry partner) above

[15] = target: T1, Protein cereblon/Tyrosine-protein kinase BTK; assay: Binding affinity to BTK/CRBN (unknown origin) assessed as ternary complex formation measured after 60 mins incubation by HTRF assay
Target sequence in this assay (Q06187 whole entry): as the sequence (Q06187 whole entry) above
Target sequence in this assay (Q96SW2 whole entry): as the sequence (Q96SW2 whole entry partner) above

[16] = target: T1, Protein cereblon/Tyrosine-protein kinase BTK; assay: Binding affinity to BTK/CRBN (unknown origin) assessed as ternary complex formation by measuring peak HTRF ratio at wavelength 665/620 nm measured after 60 mins incubation by HTRF assay
[17] = target: T1, Protein cereblon/Tyrosine-protein kinase BTK; assay: Binding affinity to BTK/CRBN (unknown origin) assessed as ternary complex formation by measuring peak concentration measured after 60 mins incubation by HTRF assay

| SMILES | Activity [1] [%] | Activity [2] [%] | other results |
| --- | --- | --- | --- |
| O=C(/C=C/C(F)(F)F)Nc1cccc(Nc2nc(Nc3ccc(N4CCN(C5CN(c6ccc7c(c6)C(=O)N(C6CCC(=O)NC6=O)C7=O)C5)CC4)cc3)ncc2F)c1 (centres undefined) | 26 | – | – |
| O=C1CCC(N2C(=O)c3ccc(N4CCC(CN5CCN(c6ccc(Nc7ncc(F)c(N8CCC[C@@H](N9CCOC9=O)C8)n7)cc6)CC5)CC4)cc3C2=O)C(=O)N1 (some centres undefined) | 39 | – | – |
| O=C1CCC(N2C(=O)c3ccc(N4CC(CN5CCN(c6ccc(Nc7ncc(F)c(N8CCC(CO)CC8)n7)cc6)CC5)C4)cc3C2=O)C(=O)N1 (centres undefined) | < 10 | – | – |
| C#CC(=O)Nc1cccc(Nc2nc(Nc3ccc(N4CCN(C5CN(c6ccc7c(c6)C(=O)N(C6CCC(=O)NC6=O)C7=O)C5)CC4)cc3)ncc2F)c1 (centres undefined) | 54 | – | – |
| Cc1cc(-c2nc(Nc3ccn(C4CCN(CC5CCN(c6ccc7c(c6)C(=O)N(C6CCC(=O)NC6=O)C7=O)CC5)CC4)n3)ncc2F)ccc1CNC(=O)c1nc(C(C)(C)C)no1 (centres undefined) | 99 | 99 | – |
| NC(=O)c1ncc(N2CCCCC2)nc1Nc1ccc(C2CCN(C[C@@H]3CCN(c4ccc5c(c4)C(=O)N(C4CCC(=O)NC4=O)C5=O)C3)CC2)cc1 (some centres undefined) | 99 | 96 | TIME [3]: < 1 h; T1/2 [4]: 1.25 h; DC50 [5]: 0.00486 µM |
| O=C1CCC(N2C(=O)c3ccc(N4CC(CN5CCN(c6ccc(Nc7ncc(F)c(-n8cccn8)n7)cc6)CC5)C4)cc3C2=O)C(=O)N1 (centres undefined) | < 10 | – | – |
| O=C1CCC(N2C(=O)c3ccc(N4CC(CN5CCN(c6ccc(Nc7ncc(F)c(N8CCC[C@@H](N9CCOC9=O)C8)n7)cc6)CC5)C4)cc3C2=O)C(=O)N1 (some centres undefined) | < 10 | – | – |
| C=CC(=O)N1CCC[C@@H](n2nc(-c3ccc(Oc4ccccc4)cc3)c3c(N)ncnc32)C1 [IBRUTINIB] | – | – | AUC(0-t) at 48 h [6]: 11200 ng·h/mL; AUC(0-inf) [7]: 11700 ng·h/mL; Cmax [8]: 3460 ng/mL |
| CC#CC(=O)Nc1cccc(Nc2nc(Nc3ccc(N4CCN(C5CN(c6ccc7c(c6)C(=O)N(C6CCC(=O)NC6=O)C7=O)C5)CC4)cc3)ncc2F)c1 (centres undefined) | 70 | – | – |
| Cc1cc(-c2nc(Nc3cnn(C4CCN(CC5CCN(c6ccc7c(c6)C(=O)N(C6CCC(=O)NC6=O)C7=O)CC5)CC4)c3)ncc2F)ccc1CNC(=O)N1CC(OC(C)C)C1 (centres undefined) | 95 | 80 | – |
| Cc1cc(-c2nc(Nc3ccn(C4CCN(CC5CCN(c6ccc7c(c6)C(=O)N(C6CCC(=O)NC6=O)C7=O)CC5)CC4)n3)ncc2F)ccc1CNC(=O)c1cnc(C(C)(C)C)s1 (centres undefined) | 16 | 0 | – |
| O=C1CCC(N2C(=O)c3ccc(N4CCC(CN5CCN(c6ccc(Nc7ncc(F)c(N8CCC(CO)CC8)n7)cn6)CC5)CC4)cc3C2=O)C(=O)N1 (centres undefined) | 20 | – | – |
| Cc1cc(-c2nc(Nc3ccn(C4CCN(CC5CCN(c6ccc7c(c6)C(=O)N(C6CCC(=O)NC6=O)C7=O)CC5)CC4)n3)ncc2F)ccc1CNC(=O)c1noc(C(C)(C)C)n1 (centres undefined) | 99 | 98 | Activity [9]: Tde; Activity [10]: Active; T1/2 [4]: 1.1 h; DC50 [5]: 0.0103 µM |
| O=C1CCC(N2C(=O)c3ccc(N4CC(CN5CCN(c6ccc(Nc7ncc(F)c(N8CCC(CO)CC8)n7)cn6)CC5)C4)cc3C2=O)C(=O)N1 (centres undefined) | < 10 | – | – |
| C=CC(=O)Nc1cccc(Nc2nc(Nc3ccc(N4CCN(C5CN(c6ccc7c(c6)C(=O)N(C6CCC(=O)NC6=O)C7=O)C5)CC4)cc3)ncc2F)c1 (centres undefined) | < 10 | – | – |
| Cc1cc(-c2nc(Nc3ccn(C4CN(CC5CCN(c6ccc7c(c6)C(=O)N(C6CCC(=O)NC6=O)C7=O)CC5)C4)n3)ncc2F)ccc1CNC(=O)c1noc(C(C)(C)C)n1 (centres undefined) | 99 | 78 | – |
| Cc1cc(-c2nc(Nc3ccn(C4CCN(CC5CCN(c6ccc7c(c6)C(=O)N(C6CCC(=O)NC6=O)C7=O)CC5)CC4)n3)ncc2F)ccc1CNC(=O)c1cn(C2CC2)nn1 (centres undefined) | 21 | 99 | Activity [9]: Tde |
| Cc1cc(-c2nc(Nc3ccn(C4CN(CC5CCN(c6ccc7c(c6)C(=O)N(C6CCC(=O)NC6=O)C7=O)CC5)C4)n3)ncc2F)ccc1CNC(=O)c1nc(C(C)(C)C)no1 (centres undefined) | 99 | 96 | – |

| SMILES | Activity [1] [%] | Activity [2] [%] | other results |
| --- | --- | --- | --- |
| O=C1CCC(N2C(=O)c3ccc(N4CCC(CN5CCN(c6ccc(Nc7ncc(F)c(N8CCC(CO)CC8)n7)cc6)CC5)CC4)cc3C2=O)C(=O)N1 (centres undefined) | 25 | – | – |
| Cc1cc(-c2nc(Nc3ccn(C4CN(CC5CCN(c6ccc7c(c6)C(=O)N(C6CCC(=O)NC6=O)C7=O)CC5)C4)n3)ncc2F)ccc1CNC(=O)c1cnc(C(C)(C)C)s1 (centres undefined) | 95 | 75 | – |
| Cc1cc(-c2nc(Nc3cnn(C4CCN(CC5CCN(c6ccc(C7CCC(=O)NC7=O)cc6F)CC5)CC4)c3)ncc2F)ccc1CNC(=O)c1cn(C(C)(C)C)nn1 (centres undefined) | 57 | – | – |
| Cc1cc(-c2nc(Nc3cnn(C4CCN(C(=O)CCC(=O)N[C@@H](C)C(=O)N[C@H]5CCC(=O)NC5=O)CC4)c3)ncc2F)ccc1CNC(=O)c1cn(C(C)(C)C)nn1 | 32 | – | – |
| Cc1cc(-c2nc(Nc3ccn(C4CN(CC5CCN(c6ccc7c(c6)C(=O)N(C6CCC(=O)NC6=O)C7=O)CC5)C4)n3)ncc2F)ccc1CNC(=O)c1cn(C2CC2)nn1 (centres undefined) | 97 | 92 | – |
| CN1CCN([C@@H]2CCCN(c3nc(Nc4ccc(N5CCN(CC6CCN(c7ccc8c(c7)C(=O)N(C7CCC(=O)NC7=O)C8=O)CC6)CC5)cc4)ncc3F)C2)C1=O (some centres undefined) | 30 | – | – |
| O=C1CCC(N2C(=O)c3ccc(N4CC(CN5CCC(C#Cc6ccc(Nc7ncc(F)c(N8CCC(CO)CC8)n7)cn6)CC5)C4)cc3C2=O)C(=O)N1 (centres undefined) | 20 | – | – |
| Cc1cc(-c2nc(Nc3cnn(C4CN(CC5CCN(c6ccc7c(c6)C(=O)N(C6CCC(=O)NC6=O)C7=O)CC5)C4)c3)ncc2F)ccc1CNC(=O)c1cn(C(C)(C)C)nn1 (centres undefined) | 99 | 99 | Activity [9]: Tde; Activity [10]: Active; TIME [3]: < 0.5 h; T1/2 [4]: 0.71 h; DC50 [5]: 0.00249 µM |
| Cc1cc(-c2nc(Nc3cnn(C4CN(CC5CCN(c6ccc7c(c6)C(=O)N(C6CCC(=O)NC6=O)C7=O)CC5)C4)c3)ncc2F)ccc1CNC(=O)c1ccc(C(C)(C)C)cc1 (centres undefined) | 29 | 0 | – |
| Cc1cc(-c2nc(Nc3cnn(C4CCN(CC5CCN(c6ccc7c(c6)C(=O)N(C6CCC(=O)NC6=O)C7=O)CC5)CC4)c3)ncc2F)ccc1CNC(=O)c1ccc(C(C)(C)C)cc1 (centres undefined) | 49 | 0 | – |
| O=C1CCC(N2C(=O)c3ccc(N4CCC(N5CCN(c6ccc(Nc7ncc(F)c(N8CCC(CO)CC8)n7)cc6)CC5)CC4)cc3C2=O)C(=O)N1 (centres undefined) | < 10 | – | – |
| C=CC(=O)Nc1cccc(Nc2nc(Nc3ccc(N4CCN(CC5CCN(c6ccc7c(c6)C(=O)N(C6CCC(=O)NC6=O)C7=O)CC5)CC4)cc3)ncc2F)c1 (centres undefined) | 28 | – | – |
| Nc1ncnc2c1c(-c1ccc(Oc3ccccc3)cc1)nn2C1CCN(C(=O)CN2CCN(CC3CN(c4ccc5c(c4)C(=O)N(C4CCC(=O)NC4=O)C5=O)C3)CC2)CC1 (centres undefined) | 99 | 95 | Activity [9]: Tde; Activity [11]: Active; TIME [3]: < 1 h; T1/2 [4]: 1.51 h; DC50 [5]: 0.0189 µM; DC50 [12]: 0.00707 µM; IC50 [13]: 0.0955 µM; Ki [14]: 0.0503 µM; IC50 (Protein cereblon): 0.285 µM; EC50 [15]: 0.00274 µM; Ratio [16]: 13.1; Activity [17]: 37 nM |
| Cn1cc(Nc2nc(Nc3ccc(N4CCN(CC5CN(c6ccc7c(c6)C(=O)N(C6CCC(=O)NC6=O)C7=O)C5)CC4)cc3)ncc2F)cn1 (centres undefined) | 11 | – | – |
| O=C1CCC(N2C(=O)c3ccc(N4CCC(CN5CCC(C#Cc6ccc(Nc7ncc(F)c(N8CCC(CO)CC8)n7)cn6)CC5)CC4)cc3C2=O)C(=O)N1 (centres undefined) | 35 | – | – |
| CN1CCN([C@@H]2CCCN(c3nc(Nc4ccc(N5CCN(CC6CN(c7ccc8c(c7)C(=O)N(C7CCC(=O)NC7=O)C8=O)C6)CC5)cc4)ncc3F)C2)C1=O (some centres undefined) | < 10 | – | – |
| Cc1cc(-c2nc(Nc3ccn(C4CCN(CC5CCN(c6ccc7c(c6)C(=O)N(C6CCC(=O)NC6=O)C7=O)CC5)CC4)n3)ncc2F)ccc1CNC(=O)c1noc(C2CC2)n1 (centres undefined) | 63 | 0 | – |
| Cc1cc(-c2nc(Nc3cnn(C4CCN(CC5CCN(c6ncc(-c7ccc(=O)[nH]n7)cc6F)CC5)CC4)c3)ncc2F)ccc1CNC(=O)c1cn(C(C)(C)C)nn1 | 48 | – | – |
